Data published in patent US7449495B2, “Retinoid derivatives with antiangiogenic, antitumoral and proapoptotic activities” (Sigma-Tau Industrie Farmaceutiche Riunite S.p.A., priority 2001, dated 2008).

Assays:
[1] = tested on: human prostate carcinoma PC3 cells; assay: Cyto-fluorometric cell cycle analysis, PC3; format: cell-based; design: key to APOPTOSIS: % of cells (cell cycle phase percentages)
Experimental: To evaluate the effect of the compound according to the invention, on various phases of the cell cycle, cyto-fluorometric cell cycle analyses were performed.
On the third day of treatment 500.000 cells were sampled, centrifuged at 180×g for 5 minutes, washed twice in calcium and magnesium free PBS. The cells (1×10^6/ml of fixative) were fixed for at least 1 hour in a fixation mixture comprised of acetone/methanol 1:4 v/v maintained at −20° C. and 50% of calcium and magnesium free PBS; then the cells were centrifuged, washed in calcium and magnesium free PBS, and again centrifuged and washed. The cellular precipitate was incubated for 30 minutes in the dark at room temperature with 200 μl of […] (100 μg/ml) and 200 μl of RNAse (150 KU/mg).
The samples with filtered through nylon filters (60-80 μm diameter) and analysed by cyto-fluorimeter FACScan (Becton Dickinson), acquiring 20000 events/sample, at an excitation wavelength of 488 nm and emission wavelength of 620 nm. The analysis of the percentages of the cell cycle phases was performed using a dedicated software package, Modfit v. 2.0 (Becton Dickinson).
For the cell cycle analysis of prostate carcinoma cells PC3, the cells were seeded in plates at a density of 500000 cells/ml in RPMI medium. After treatment with compound ST1926 for 24 hours, cells were analysed as described above.

[2] = tested on: osteosarcoma U2OS; assay: Cytotoxicity test (sulphorodamine B), U2OS; format: cell-based; conditions: Homo sapiens, 24 h incubation, survival 48 h after removal
Excerpt: (§1) Different cell lines deriving from solid tumors were also used. • 1. Human prostate carcinoma PC3 and DU145. These cell lines were maintained in RPMI 1640 medium containing 10% FCS, 1% sodium pyruvate and 1% glutamine; • 2. Human colon adenocarcinoma LoVo. This cell line was maintained in HAM's F-12 medium, containing 10% FCS and 1% glutamine. • 3. Human ovarian carcinoma such as A2780 and A2780/Dx, sensitive and resistant to drugs, respectively (doxorubicin, taxol, etoposide, vincristine); IGROV-1 and IGROV-1/Pt, sensitive and resistant to platinum-based chemotherapy, respectively, were maintained in RPMI 1640 medium containing 10% FCS, 1% sodium pyruvate and 1% glutamine; • 4. Human melanoma MeWo and MeS 2.21, glioblastoma GBM, no small cell lung carcinomas A431, NCI—H460, osteosarcomas SAOS and U2OS were maintained in RPMI 1640 medium containing 10% FCS, 1% sodium pyruvate and 1% glutamine.
(§2) The cytotoxicity tests were carried out using NB4 or HL-60 cells in suspension (10000/well). The cells were seeded in a volume of 250 μl in 96 well plates and incubated for 24 hours at 37° C. […] The optical density was measured using a Multiskan spectrophotometer at 540 nm. […]
(§3) Cell survival was determined by incubation with ST1926 for 24 hours, 48 hours after the removal of the compound. […]

[3] = tested on: glioblastoma GBM; assay: Cytotoxicity test (sulphorodamine B), GBM; format: cell-based; conditions: Homo sapiens, 24 h incubation, survival 48 h after removal
Excerpt: as §1, §2, §3

[4] = tested on: chicken chorioallantoic membrane vessels, bFGF induced; assay: Angiostatic activity in chicken chorioallantoic membrane (CAM) model; format: in vivo; conditions: bFGF 0.05 + compound 0.25 μg/embryo
Excerpt: The chicken chorioallantoic membrane is a very vascularised membrane in which the vessels make their appearance at the 4th day of development, develop an arteriovenal system by the 8th day of development, and actively proliferate until the 11th day.
The aim of the study was to follow vasal development in the CAM under basal conditions and in the presence of an inducer bFGF (basic Fibroblast Growth Factor) of vasoproliferation. This study used chicken embryonal eggs at the initial stage of their development. On the 3rd day of development an operation to open the shells was performed to make the vessels of the CAM visible. The treatment was administered on the 9th day of development by applying a fragment of sterile gelatine (GELFOAM Pharmacia-Upjohn) about 1 mm^3, to the CAM surface, onto which was administered the bFGF (50 ng/embryo) or the products in question, for 3 consecutive days.
The evaluation of the effect of the molecule on vasoproliferation was obtained by a comparison of the vessels at the time of zero treatment with these of later times (12th day).

[5] = PC3, 0.02 μM, 24 hours of treatment and 0 hours of recovery
[6] = PC3, 0.02 μM, 24 hours of treatment and 24 hours of recovery
[7] = PC3, 0.05 μM, 24 hours of treatment and 0 hours of recovery
[8] = PC3, 0.05 μM, 24 hours of treatment and 24 hours of recovery
[9] = PC3, 0.1 μM, 24 hours of treatment and 0 hours of recovery
[10] = PC3, 0.1 μM, 24 hours of treatment and 24 hours of recovery
[11] = PC3, 0.2 μM, 24 hours of treatment and 24 hours of recovery

`O=C(O)/C=C/c1ccc(-c2ccc(O)c(C34CC5CC(CC(C5)C3)C4)c2)cc1` [ST1926, E-4-(3-(1-adamantyl)-4-hydroxyphenyl)cinnamic acid] was tested, and the APOPTOSIS [1, 5] was 9, the G0/G1 [1, 5] was 54.0 and the “G2 + M” value [1, 5] was 21.8. It also gave an S [1, 5] of 24.2, an APOPTOSIS [1, 6] of 13 and a G0/G1 [1, 6] of 44.6. For the same compound, the “G2 + M” value [1, 6] was 25.0, the S [1, 6] was 30.4 and the APOPTOSIS [1, 7] was 11. For the same compound, the G0/G1 [1, 7] was 55.8, the “G2 + M” value [1, 7] was 20.6 and the S [1, 7] was 23.6. For the same compound, the APOPTOSIS [1, 8] was 15, the G0/G1 [1, 8] was 44.9 and the “G2 + M” value [1, 8] was 25.6. It also gave an S [1, 8] of 29.5, an APOPTOSIS [1, 9] of 10 and a G0/G1 [1, 9] of 52.0. The “G2 + M” value [1, 9] was 28.0, the S [1, 9] was 35.4 and the APOPTOSIS [1, 10] was 10. For the same compound, the G0/G1 [1, 10] was 45.8, the “G2 + M” value [1, 10] was 28.4 and the S [1, 10] was 25.8. The APOPTOSIS ([1]; PC3, 0.2 μM, 24 hours of treatment and 0 hours of recovery) was 13.5, the APOPTOSIS [1, 11] was 13 and the G0/G1 [1, 11] was 31.8. For the same compound, the “G2 + M” value [1, 11] was 25.0, the S [1, 11] was 43.2 and the “effect on PC3 cells at the end of treatment (in words)” value ([1]; PC3, 0.4 μM, 24 hours of treatment) was “induced apoptosis”. It also gave an APOPTOSIS ([1]; PC3, 0.4 μM, 24 hours of treatment and 0 hours of recovery) of 25, an APOPTOSIS ([1]; PC3, 0.4 μM, 24 hours of treatment and 24 hours of recovery) of 26 and an IC50 [2] of 260 nM. For the same compound, the IC50 [3] was 180 nM, the “Δvessels, change vs bFGF alone” value [4] was “(−53%)” and the “12th day (72 hours), number of vessels per sponge” value ([4]; mean ± SE) was 12 ± 2 vessels per sponge. It also gave a Δvessels ([4]; mean ± SE) of 9 ± 2 vessels per sponge.
